Data set [1] is described as follows: Temperature and pH stability assay in phosphate buffers. Particulars: 50 mM phosphate buffer; for half-life at 0.1 mg/mL: phosphate buffer. Format: physicochemical.
Data set [2] in a line: Stability assay in human serum. Particulars: male, 37 °C. Format: in vitro ADME.
Data set [3] in a line: Stability assay under reductive conditions. The data set is classed as physicochemical. Particulars: PBS buffer with 1.0 mM L-glutathione, pH 7.

Each structure is given as a SMILES string.

As usually defined, the half-life is how long it takes for the measured level to halve. The low end stands for rapid decline, the high end for slow decline. For the molecule `CC[C@H](C)[C@@H]1NC(=O)[C@H](Cc2ccc(O)cc2)NC(=O)[C@@H](N)CSSC[C@@H](C(=O)N2CCC[C@H]2C(=O)N[C@@H](CC(C)C)C(=O)NCC(N)=O)NC(=O)[C@H](CC(N)=O)NC(=O)[C@H](CCC(N)=O)NC1=O` [OXT, oxytocin], the half-life in data set [1] (pH 2.0, 40 °C) amounted to 14 ± 0.9 days; in data set [1] (pH 4.5, 40 °C) it was 121 ± 6.2 days. Moreover, the half-life at 0.1 mg/mL in data set [1] (pH 2, half-life, pH 2.0, 55 °C) is 76.8 h; in data set [1] (pH 4.5, half-life, pH 4.5, 55 °C) it was 432 h; in data set [1] (pH 7, half-life, pH 7.0, 40 °C), 173 h; in data set [1] (pH 7, half-life, pH 7.0, 55 °C), 48 h; in data set [1] (pH 9, half-life, pH 9.0, 40 °C), 93.6 h; in data set [1] (pH 9, half-life, pH 9.0, 55 °C), 21.6 h. The half-life at 0.45 mM in data set [2] was 28.8 h. Further, the half-life at 9.9 µM in data set [3] is 8 h.

Values taken from PMC5355835 (Chemical Science, 2016).
